From ChEMBL document CHEMBL2346599, “Rational design and binding mode duality of MDM2-p53 inhibitors” (J Med Chem, 2013)
Each block holds one compound with its values, some of them ahead of it. The source made the active and inactive calls. No cut-off for these calls is given here.

Columns and labels:
Protein Mdm4 = target: T1, Protein Mdm4 (Homo sapiens, UniProt O15151); test: Binding affinity to MDMX (unknown origin) after 20 mins by HTRF assay
T1 sequence (O15151 whole entry): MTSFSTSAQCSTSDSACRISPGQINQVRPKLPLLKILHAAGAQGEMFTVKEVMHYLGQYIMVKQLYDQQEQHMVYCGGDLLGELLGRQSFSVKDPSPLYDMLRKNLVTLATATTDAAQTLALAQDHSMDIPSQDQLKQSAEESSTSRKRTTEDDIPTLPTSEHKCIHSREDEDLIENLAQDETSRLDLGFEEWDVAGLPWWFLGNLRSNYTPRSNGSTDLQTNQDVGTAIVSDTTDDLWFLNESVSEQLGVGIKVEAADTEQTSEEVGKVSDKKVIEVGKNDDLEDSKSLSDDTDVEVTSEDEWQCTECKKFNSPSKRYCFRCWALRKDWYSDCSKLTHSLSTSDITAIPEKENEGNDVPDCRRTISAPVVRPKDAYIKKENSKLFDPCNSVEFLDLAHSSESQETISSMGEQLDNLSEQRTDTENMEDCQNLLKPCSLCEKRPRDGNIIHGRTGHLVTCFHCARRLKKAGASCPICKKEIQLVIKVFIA

[1] = target: T2, E3 ubiquitin-protein ligase Mdm2 (Homo sapiens, UniProt Q00987); test: Inhibition of human recombinant GST-thrombin-MDM2 (1 to 188) expressed in Escherichia coli assessed as reduction of MDM2-p53 interaction incubated for 20 mins followed by p53 addition measured after 60 mins by HTRF assay
T2 sequence (Q00987 whole entry): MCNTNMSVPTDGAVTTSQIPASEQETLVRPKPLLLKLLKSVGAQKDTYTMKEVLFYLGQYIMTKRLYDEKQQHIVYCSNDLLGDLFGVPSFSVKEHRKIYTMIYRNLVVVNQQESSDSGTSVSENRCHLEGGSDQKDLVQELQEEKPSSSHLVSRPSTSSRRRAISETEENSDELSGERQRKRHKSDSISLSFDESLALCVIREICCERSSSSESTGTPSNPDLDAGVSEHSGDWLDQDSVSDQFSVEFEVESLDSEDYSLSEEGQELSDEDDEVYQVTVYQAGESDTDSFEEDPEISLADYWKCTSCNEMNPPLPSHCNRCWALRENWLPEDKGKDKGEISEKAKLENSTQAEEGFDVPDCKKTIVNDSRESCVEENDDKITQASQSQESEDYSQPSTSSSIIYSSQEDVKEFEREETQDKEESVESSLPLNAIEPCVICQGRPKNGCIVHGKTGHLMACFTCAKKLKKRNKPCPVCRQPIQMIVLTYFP

[2] = Fraction unbound in mouse plasma; assay type: ADME, cell-free
[3] = AUC in athymic nude mouse at 5 mg/kg, po; assay type: ADME, organism-based; parameters: dose 5 mg/kg, route oral; settings: plasma
[4] = Drug uptake in tumor of athymic nude mouse xenografted with human SJSA1 cells at 100 mg/kg, po qd after 7 hrs; assay type: ADME, organism-based, Neoplasm, SJSA-1; parameters: dose 100 mg/kg, route oral; settings: read-out: Drug uptake
[5] = Fraction unbound in rat plasma; assay type: ADME, cell-free
Mus musculus = species on record: Mus musculus; settings: SJSA-1, 30 to 100 mg/kg
Description: In vivo inhibition of MDM2 in human SJSA1 cells xenografted in athymic nude mouse assessed as upregulation of p21 mRNA level at 30 to 100 mg/kg, po qd after 7 hrs by qRT-PCR analysis

[6] = Volume of distribution at steady state in athymic nude mouse at 1 mg/kg, iv; assay type: ADME, organism-based; parameters: dose 1 mg/kg, route intravenous; settings: in vivo, read-out: Vdss
[7] = Plasma concentration in athymic nude mouse xenografted with human SJSA1 cells at 300 mg/kg, po qd after 7 hrs; assay type: ADME, organism-based, SJSA-1; parameters: dose 300 mg/kg, route oral
[8] = Half life in athymic nude mouse at 1 mg/kg, iv; assay type: ADME, organism-based; parameters: dose 1 mg/kg, route intravenous; settings: in vivo
[9] = Clearance in athymic nude mouse at 1 mg/kg, iv; assay type: ADME, organism-based; parameters: dose 1 mg/kg, route intravenous; settings: in vivo
[10] = Drug uptake in tumor of athymic nude mouse xenografted with human SJSA1 cells at 300 mg/kg, po qd after 7 hrs; assay type: ADME, organism-based, Neoplasm, SJSA-1; parameters: dose 300 mg/kg, route oral; settings: read-out: Drug uptake
[11] = Fraction unbound in human plasma; assay type: ADME, cell-free
[12] = Oral bioavailability in athymic nude mouse at 5 mg/kg; assay type: ADME, organism-based; settings: in vivo
[13] = Drug uptake in tumor of athymic nude mouse xenografted with human SJSA1 cells at 30 mg/kg, po qd after 7 hrs; assay type: ADME, organism-based, Neoplasm, SJSA-1; parameters: dose 30 mg/kg, route oral; settings: read-out: Drug uptake
[14] = target: T2, E3 ubiquitin-protein ligase Mdm2; test: Inhibition of human recombinant GST-thrombin-MDM2 (1 to 188) expressed in Escherichia coli assessed as reduction of MDM2-p53 interaction incubated for 20 mins followed by p53 addition measured after 60 mins by HTRF assay in presence of 15% serum

Compound: O=C(O)C[C@H]1C[C@H](c2cccc(Cl)c2)[C@@H](c2ccc(Cl)cc2)N(CC2CC2)C1=O
IC50 (Protein Mdm4): > 30 µM

Compound: COc1ccc([C@H]2CC(=O)C=C(c3ccc(Cl)cc3)[C@@H]2c2ccc(Cl)cc2)cc1OC (racemic)
IC50 [1]: > 30 µM

Compound: CN1C(=O)CO[C@@H](c2ccc(Cl)cc2)[C@H]1c1cccc(Cl)c1 (racemic)
IC50 [1]: > 30 µM
IC50 [14]: > 30 µM

Now from value to compound, other results behind:

fraction unbound [2]: 0.059
AUC [3]: 4.1 µM·h
concentration at 7 h [4]: 2.1 µM
fraction unbound [5]: 0.06
Vd [6]: 3.9 L/kg
concentration at 7 h [7]: 102 µM
half-life [8]: 4.1 h
clearance [9]: 28.3 mL/min/kg
concentration at 7 h [10]: 22.9 µM
fraction unbound [11]: 0.042
bioavailability [12]: 59%
IC50 (Protein Mdm4): > 30 µM
concentration at 7 h [13]: 0.3 µM
Compound: O=C(O)C[C@@H]1O[C@@H](c2cccc(Cl)c2)[C@@H](c2ccc(Cl)cc2)N(CC2CC2)C1=O
inhibition (Mus musculus): inactive

IC50 (Protein Mdm4): > 30 µM
Compound: CN1C(=O)[C@H](Cc2ccccc2)O[C@@H](c2ccc(Br)cc2)[C@H]1c1ccc(Br)cc1

IC50 [1]: > 30 µM
Compound: CC(C)(C)OC(=O)N1CC(=O)N[C@H](c2ccc(Br)cc2)[C@@H]1c1ccc(Br)cc1 (racemic)

IC50 [1]: > 30 µM
Compound: CN1C[C@H](Cc2ccccc2)O[C@@H](c2ccc(Br)cc2)[C@H]1c1ccc(Br)cc1 (racemic)

IC50 (Protein Mdm4): > 30 µM
Compound: CCC[C@H](C(=O)O)N1C(=O)[C@H](Cc2ccc(F)cc2)O[C@@H](c2ccc(Cl)cc2)[C@H]1c1ccc(Cl)cc1
